We go through one compound from patent US12514929B2, “Deformable nano-scale vehicles (DNVS) for trans-blood brain barrier, trans-mucosal, and transdermal drug delivery” (The Regents of the University of California, priority 2017, dated 2026).

One series concerns Aβ42. The series is described as follows: Effect of galangin and progalangin on Aβ42. The arrangement: species or system mice. The settings on record: mouse, in vivo. The source says:
(§1) Progalangin reduced Aβ40 as well as Aβ42 levels (FIG. 19B).

Another series concerns Aβ40. The series is described as follows: Effect of galangin and progalangin on Aβ40. The arrangement: species or system mice. The settings on record: mouse, in vivo.
Excerpt: as §1

Series [1] can be described thus: Pharmacokinetics of galangin and progalangin in mice. The class given is in vivo. As to conditions: at 1 h.
Excerpt: as §1

In the case of `O=c1c(O)c(-c2ccccc2)oc2cc(O)cc(O)c12` [Galangin, galangin], the Aβ42 levels result with Aβ42 is listed as “no effect”. The Aβ40 levels entry in the series with Aβ40 is recorded as “reduce Aβ40 levels”. In addition, in series [1], the “Brain Cmax” value is “approximately 50 ng/g”.
